Source: patent publication US20050026982A1, “Composition that consists of alkanedicarboxylic acids and a pharmaceutical active ingredient” (priority 2003, published 2005)
“Also recorded” adds a separate entry of the source. Marks after values point to notes of the source that are not given here.

Tested on: croton-oil-inflamed mouse skin
Experiment: Croton oil-induced inflammation on the mouse ear (irritative contact dermatitis model), leukocyte infiltration of the skin
Type: in vivo
Conditions: metronidazole 0.75%; for Inhibition [%] of the Skin Infiltration of Granulocytes & Monocytes (Myelo-Peroxidase Activity) / Inhibition [%] of the Skin Infiltration of Neutrophilic (Elastase Activity): croton oil dissolving-out on mouse ear, inhibition vs croton oil + vehicle treatment, azelaic acid 20%, methylprednisolone 0.1%, ethanol/isopropyl myristat; for Therapeutic effect in the inflammation model in comparison to the vehicle (peroxidase and elastase activity in the skin): azelaic acid 20% in ethanol/isopropyl myristat
From the text: The induction of an inflammatory reaction (irritative contact dermatitis) is a common model for pharmacological evaluation of the anti-inflammatory potential of topically or systemically administered test substances (Trancik and Lowe (1985) Evaluation of Topical Nonsteroidal Anti-Inflammatory Agents, Models in Dermatology, H. Maibach and N. J. Lowe. Basel, Karger: 35-42). It has proven effective, i.a., in the testing of non-steroidal antiphlogistic agents as well as in glucocorticoid steroids and is regarded as the most reproducible in-vivo test for the evaluation of topical anti-inflammatory substances (Lorenzetti (1975) Animal to Clinical Correlation of Topical Anti-Inflammatory Efficacy. Animal Models in Dermatology. H. Maibach. Basel Karger: 212-225).
The application of the phorbol ester croton oil to mouse ears results in an acute, inflammatory reaction with edema and immigration of primarily polymorphonuclear granulocytes that reaches its maximum within 24 hours. In this connection, test substances can be administered either preventively (i.e., before administration of the inflammatory stimuli) or simultaneously with croton oil. The croton oil-induced inflammation on the mouse ear is not only a model of irritative and/or allergic contact dermatitis, but also other skin diseases that are associated with a high inflammation and immigration of granulocytes. These include psoriasis, atopic dermatis, common acne and the inflammatory stage of rosacea.
Rosacea is a disease of unknown etiology that is considered by many authors to be in the acne group and is generated on the latter and can remove the latter over the course of time. The disease is divided into three stages, of which in particular Rosacea II and III are characterized by inflammatory nodules, nodes, and patches. A leukocytic infiltrate is found by histology (Braun-Falco et al. (1995) Dermatologie und Venerologie. Heidelberg, Springer). Because of the inflammatory components of these stages with leukocyte infiltration of the skin, the croton oil model reflects aspects of this disease.
The activity included, i.a., the immigrations of leukocytes, measured as peroxidase activity in the skin, as well as the immigration of neutrophilic granulocytes, measured as elastase activity in the skin (Table 1).

For O=C(O)CCCCCCCC(=O)O [Azelaic Acid, azelaic acid], the “Inhibition [%] of the Skin Infiltration of Granulocytes & Monocytes (Myelo-Peroxidase Activity)” value (shortened to “Inhibition [%] … (Myelo-Peroxidase Activity)”) was 21 (n.s.)* %, the “Inhibition [%] of the Skin Infiltration of Neutrophilic (Elastase Activity)” value (“Inhibition [%] … (Elastase Activity)” below) was 11 (n.s.)* % and the “Therapeutic effect in the inflammation model in comparison to the vehicle (peroxidase and elastase activity in the skin)” value was “did not show such high, therapeutic effects; also recorded: do not show such high, therapeutic effects”.

With C[C@H]1C[C@@H]2[C@H]([C@@H](O)C[C@@]3(C)[C@H]2CC[C@]3(O)C(=O)CO)[C@@]2(C)C=CC(=O)C=C12 [Methylprednisolone] the “Inhibition [%] … (Myelo-Peroxidase Activity)” value was 90 (p < 0.05)* % and the “Inhibition [%] … (Elastase Activity)” value was 95 (p < 0.05)* %.

Cc1ncc([N+](=O)[O-])n1CCO [Metroidazole, 1-(2-hydroxyethyl)-2-methyl-5-nitroimidazole] was tested, and the “Inhibition [%] … (Myelo-Peroxidase Activity)” value was 9 (n.s.)* %, the “Inhibition [%] … (Elastase Activity)” value was 18 (n.s.)* % and the “Therapeutic effect in the inflammation model in comparison to the vehicle (peroxidase and elastase activity in the skin)” value was “did not show such high, therapeutic effects; also recorded: do not show such high, therapeutic effects”.
